Experimental data as given in ChEMBL document CHEMBL4765299 (Eur J Med Chem, 2020).
Activity calls are given as the source filed them. The rule behind the calls is not given here.

How the values were obtained:
K562 [1] = experiment: Induction of apoptosis in human K562 cells assessed as late apoptotic cells at 20 nM incubated for 48 hrs by AnnexinV-FITC/propidium iodide staining based flow cytometry analysis (reference value: 1.78%); type: functional
HUVEC [2] = experiment: Anti-angiogenesis activity in HUVEC assessed as inhibition of capillary-like tube formation at 10 nM incubated for 6 hrs by Matrigel-based optical microscopy; type: functional, cell-based; conditions: Homo sapiens
HUVEC [3] = experiment: Inhibition of cell migration in HUVEC assessed as wound closure at 20 nM after 24 hrs by scratch wound healing assay (reference value: 76.3%); type: functional, Homo sapiens; design: scale not given: the % may be the effect or the level left
[4] = Toxicity in ICR mouse allografted with mouse H22 cells assessed as kidney morphological changes at 30 mg/kg, iv administered daily for 21 days by hematoxylin and eosin staining based microscopic analysis; type: organism-based; conditions: in vivo, 504 h, dose 30 mg/kg/day, time 21 day
H22 = experiment: Antiproliferative activity against mouse H22 cells assessed as inhibition of cell growth by MTT assay; type: functional, cell-based
K562 [5] = experiment: Induction of apoptosis in human K562 cells assessed as early apoptotic cells at 5 nM incubated for 48 hrs by AnnexinV-FITC/propidium iodide staining based flow cytometry analysis (reference value: 1.47%); type: functional
[6] = Inhibition of porcine brain tubulin polymerization assessed as inhibition of microtubule assembly by measuring decrease in absorbance measured for 60 mins by fluorescence based analysis; type: tissue-based, Sus scrofa
[7] = Toxicity in ICR mouse allografted with mouse H22 cells assessed as spleen morphological changes at 30 mg/kg, iv administered daily for 21 days by hematoxylin and eosin staining based microscopic analysis; type: organism-based; conditions: in vivo, 504 h, dose 30 mg/kg/day, time 21 day
K562 [8] = experiment: Induction of apoptosis in human K562 cells assessed as late apoptotic cells at 10 nM incubated for 48 hrs by AnnexinV-FITC/propidium iodide staining based flow cytometry analysis (reference value: 1.78%); type: functional
Sus scrofa = species: Sus scrofa; experiment: Displacement of [3H]colchicine from porcine brain tubulin at 5 uM incubated for 2 hrs by TopCount scintillation counting method relative to control; type: tissue-based
K562 [9] = experiment: Induction of mitochondrial membrane potential depolarization in human K562 cells assessed proportion of cells with collapsed MMP at 10 nM measured after 48 hrs by JC-1 staining based flow cytometry (reference value: 1.57%); type: functional
[10] = Toxicity in ICR mouse allografted with mouse H22 cells assessed as heart morphological changes at 30 mg/kg, iv administered daily for 21 days by hematoxylin and eosin staining based microscopic analysis; type: organism-based; conditions: in vivo, 504 h, dose 30 mg/kg/day, time 21 day
[11] = Toxicity in ICR mouse allografted with mouse H22 cells assessed as body weight loss at 30 mg/kg, iv administered daily for 21 days; type: organism-based; conditions: in vivo, 504 h, dose 30 mg/kg/day, time 21 day
K562 [12] = experiment: Induction of cell cycle arrest in human K562 cells assessed as increase in accumulation at G2/M phase incubated for 48 hrs by propidium iodide/RNase staining based flow cytometry; type: functional; conditions: dose 5-20 nM
K562 [13] = experiment: Induction of apoptosis in human K562 cells assessed as early apoptotic cells at 20 nM incubated for 48 hrs by AnnexinV-FITC/propidium iodide staining based flow cytometry analysis (reference value: 1.47%); type: functional
K562 [14] = experiment: Induction of mitochondrial membrane potential depolarization in human K562 cells assessed proportion of cells with intact MMP at 5 nM measured after 48 hrs by JC-1 staining based flow cytometry (reference value: 98.12%); type: functional
HepG2 = experiment: Antiproliferative against human HepG2 cells assessed as reduction in cell viability measured after 72 hrs by MTT assay; type: functional, cell-based; conditions: HepG2, 72 h
K562 [15] = experiment: Induction of mitochondrial membrane potential depolarization in human K562 cells assessed proportion of cells with intact MMP at 10 nM measured after 48 hrs by JC-1 staining based flow cytometry (reference value: 98.12%); type: functional
K562 [16] = experiment: Induction of cell cycle arrest in human K562 cells assessed as accumulation at S phase at 5 nM incubated for 48 hrs by propidium iodide/RNase staining based flow cytometry (reference value: 53.48%); type: functional
K562 [17] = experiment: Induction of cell cycle arrest in human K562 cells assessed as accumulation at S phase at 20 nM incubated for 48 hrs by propidium iodide/RNase staining based flow cytometry (reference value: 53.48%); type: functional
K562 [18] = experiment: Induction of cell cycle arrest in human K562 cells assessed as accumulation at G1 phase at 10 nM incubated for 48 hrs by propidium iodide/RNase staining based flow cytometry (reference value: 38.83%); type: functional
K562 [19] = experiment: Induction of cell cycle arrest in human K562 cells assessed as accumulation at S phase at 10 nM incubated for 48 hrs by propidium iodide/RNase staining based flow cytometry (reference value: 53.48%); type: functional
HUVEC [20] = experiment: Inhibition of cell migration in HUVEC assessed as wound closure at 10 nM after 24 hrs by scratch wound healing assay (reference value: 76.3%); type: functional, Homo sapiens; design: scale not given: the % may be the effect or the level left

## C=C(c1cc(Cl)nc(NC)c1)c1ccc(OC)c(O)c1
K562 [1]
  Activity: 18.43%
HUVEC [2]
  Activity: Active
HUVEC [3]
  Activity: 49.2%
[4]
  Activity: Non-Toxic
H22
  IC50: 17 nM
K562 [5]
  Activity: 6.6%
[6]
  IC50: 3.15 µM
[7]
  Activity: Non-Toxic
K562 [8]
  Activity: 11.3%
Sus scrofa
  inhibition: 79.3%
K562 [9]
  Activity: 20.05%
[10]
  Activity: Non-Toxic
[11]
  Activity: Non-Toxic
K562 [12]
  Activity: Dose-dependent effect
K562 [13]
  Activity: 43.83%
K562 [14]
  Activity: 86.4%
HepG2
  IC50: 19 nM
K562 [15]
  Activity: 79.83%
K562 [16]
  Activity: 50.66%
K562 [17]
  Activity: 48.07%
K562 [18]
  Activity: 38.45%
K562 [19]
  Activity: 50.01%
HUVEC [20]
  Activity: 55.3%
